Source: ChEMBL document CHEMBL4507281, “Data for DCP probe BI-4394” (2021)

Key:
[1] = target: Tyrosine-protein kinase HCK (Homo sapiens) (UniProt P08631); settings: Compound concentration 100.0 nM
[2] = target: cAMP-dependent protein kinase catalytic subunit PRKX (Homo sapiens) (UniProt P51817); settings: Compound concentration 100.0 nM
[3] = target: Rho-associated protein kinase 1 (Homo sapiens) (UniProt Q13464); settings: Compound concentration 100.0 nM
[4] = target: Platelet-derived growth factor receptor alpha (Homo sapiens) (UniProt P16234); settings: Compound concentration 100.0 nM
Sequence of Platelet-derived growth factor receptor alpha (Homo sapiens) (P16234 whole entry): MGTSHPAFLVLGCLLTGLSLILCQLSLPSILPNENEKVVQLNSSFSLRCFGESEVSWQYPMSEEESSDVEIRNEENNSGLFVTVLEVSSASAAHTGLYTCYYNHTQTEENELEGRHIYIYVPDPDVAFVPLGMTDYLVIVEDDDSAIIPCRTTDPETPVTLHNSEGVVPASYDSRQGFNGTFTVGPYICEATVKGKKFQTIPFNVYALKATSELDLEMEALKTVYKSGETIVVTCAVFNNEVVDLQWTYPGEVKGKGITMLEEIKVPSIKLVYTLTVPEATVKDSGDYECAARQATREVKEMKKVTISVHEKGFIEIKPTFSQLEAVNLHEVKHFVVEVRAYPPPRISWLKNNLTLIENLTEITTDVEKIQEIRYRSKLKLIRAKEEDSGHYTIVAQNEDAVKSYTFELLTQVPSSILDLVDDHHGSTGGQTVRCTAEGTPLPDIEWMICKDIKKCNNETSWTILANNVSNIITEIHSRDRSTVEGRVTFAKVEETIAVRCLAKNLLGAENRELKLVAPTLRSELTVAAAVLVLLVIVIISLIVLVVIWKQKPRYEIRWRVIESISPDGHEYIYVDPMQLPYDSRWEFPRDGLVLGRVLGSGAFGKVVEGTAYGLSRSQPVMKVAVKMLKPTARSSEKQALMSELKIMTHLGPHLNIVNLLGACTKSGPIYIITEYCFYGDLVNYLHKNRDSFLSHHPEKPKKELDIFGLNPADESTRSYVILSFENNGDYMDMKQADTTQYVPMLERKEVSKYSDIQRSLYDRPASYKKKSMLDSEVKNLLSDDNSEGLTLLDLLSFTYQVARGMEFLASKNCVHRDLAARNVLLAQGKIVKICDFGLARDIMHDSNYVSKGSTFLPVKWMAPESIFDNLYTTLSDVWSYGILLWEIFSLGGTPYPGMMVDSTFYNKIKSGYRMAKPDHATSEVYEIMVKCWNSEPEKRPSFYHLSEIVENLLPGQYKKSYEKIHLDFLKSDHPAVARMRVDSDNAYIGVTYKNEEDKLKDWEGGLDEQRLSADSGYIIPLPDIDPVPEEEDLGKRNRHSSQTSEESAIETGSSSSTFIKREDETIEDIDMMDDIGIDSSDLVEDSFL

[5] = target: Angiopoietin-1 receptor (Homo sapiens) (UniProt Q02763); settings: Compound concentration 100.0 nM
Sequence of Angiopoietin-1 receptor (Homo sapiens) (Q02763 whole entry): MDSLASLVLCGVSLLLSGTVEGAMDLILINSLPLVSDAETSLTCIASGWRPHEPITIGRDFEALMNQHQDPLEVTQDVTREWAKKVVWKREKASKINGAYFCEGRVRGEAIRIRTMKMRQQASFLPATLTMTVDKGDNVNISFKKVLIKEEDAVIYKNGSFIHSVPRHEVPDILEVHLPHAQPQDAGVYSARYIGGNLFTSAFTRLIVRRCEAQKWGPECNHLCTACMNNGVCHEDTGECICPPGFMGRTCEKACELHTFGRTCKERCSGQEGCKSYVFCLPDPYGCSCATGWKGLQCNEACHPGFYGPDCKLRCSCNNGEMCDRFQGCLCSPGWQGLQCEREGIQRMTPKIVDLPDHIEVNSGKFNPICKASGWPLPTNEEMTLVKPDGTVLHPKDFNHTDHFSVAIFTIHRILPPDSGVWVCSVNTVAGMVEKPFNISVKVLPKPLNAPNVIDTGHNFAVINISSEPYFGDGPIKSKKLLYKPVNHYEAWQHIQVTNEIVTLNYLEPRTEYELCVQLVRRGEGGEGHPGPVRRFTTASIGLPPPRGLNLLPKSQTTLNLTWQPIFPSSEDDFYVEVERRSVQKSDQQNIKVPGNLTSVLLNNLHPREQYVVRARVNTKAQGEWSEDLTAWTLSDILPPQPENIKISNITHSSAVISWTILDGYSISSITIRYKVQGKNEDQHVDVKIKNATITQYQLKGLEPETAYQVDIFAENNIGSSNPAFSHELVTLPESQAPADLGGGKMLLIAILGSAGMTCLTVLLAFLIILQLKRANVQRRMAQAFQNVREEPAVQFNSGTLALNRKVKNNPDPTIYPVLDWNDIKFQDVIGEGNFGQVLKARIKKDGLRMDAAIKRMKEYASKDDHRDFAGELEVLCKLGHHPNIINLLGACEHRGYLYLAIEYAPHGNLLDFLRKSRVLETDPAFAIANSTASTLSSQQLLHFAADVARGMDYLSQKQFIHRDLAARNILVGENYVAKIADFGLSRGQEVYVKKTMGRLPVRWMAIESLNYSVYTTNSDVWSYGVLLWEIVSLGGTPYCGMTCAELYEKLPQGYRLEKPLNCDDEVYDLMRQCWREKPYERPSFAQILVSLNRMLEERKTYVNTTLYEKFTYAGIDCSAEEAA

[6] = target: Alpha-2B adrenergic receptor (Homo sapiens) (UniProt P18089); settings: Compound concentration 10.0 uM
Sequence of Alpha-2B adrenergic receptor (Homo sapiens) (P18089 whole entry): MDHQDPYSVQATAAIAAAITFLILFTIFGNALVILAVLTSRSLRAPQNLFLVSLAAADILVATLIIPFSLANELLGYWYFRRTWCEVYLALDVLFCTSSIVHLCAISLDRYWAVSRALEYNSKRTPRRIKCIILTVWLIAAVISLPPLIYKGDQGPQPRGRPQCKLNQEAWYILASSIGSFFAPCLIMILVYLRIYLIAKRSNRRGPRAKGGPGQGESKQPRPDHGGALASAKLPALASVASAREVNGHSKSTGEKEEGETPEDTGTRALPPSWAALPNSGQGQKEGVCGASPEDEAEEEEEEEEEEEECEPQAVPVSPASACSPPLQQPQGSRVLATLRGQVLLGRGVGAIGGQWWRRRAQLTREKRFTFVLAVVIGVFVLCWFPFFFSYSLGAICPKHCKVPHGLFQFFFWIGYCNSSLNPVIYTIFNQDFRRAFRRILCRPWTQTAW

[7] = test system: Tyrosine-protein kinase ABL1 (Homo sapiens), P00519 [F317I]; settings: Compound concentration 100.0 nM
Sequence of Tyrosine-protein kinase ABL1 (Homo sapiens), P00519 [F317I] (P00519 whole entry F317I): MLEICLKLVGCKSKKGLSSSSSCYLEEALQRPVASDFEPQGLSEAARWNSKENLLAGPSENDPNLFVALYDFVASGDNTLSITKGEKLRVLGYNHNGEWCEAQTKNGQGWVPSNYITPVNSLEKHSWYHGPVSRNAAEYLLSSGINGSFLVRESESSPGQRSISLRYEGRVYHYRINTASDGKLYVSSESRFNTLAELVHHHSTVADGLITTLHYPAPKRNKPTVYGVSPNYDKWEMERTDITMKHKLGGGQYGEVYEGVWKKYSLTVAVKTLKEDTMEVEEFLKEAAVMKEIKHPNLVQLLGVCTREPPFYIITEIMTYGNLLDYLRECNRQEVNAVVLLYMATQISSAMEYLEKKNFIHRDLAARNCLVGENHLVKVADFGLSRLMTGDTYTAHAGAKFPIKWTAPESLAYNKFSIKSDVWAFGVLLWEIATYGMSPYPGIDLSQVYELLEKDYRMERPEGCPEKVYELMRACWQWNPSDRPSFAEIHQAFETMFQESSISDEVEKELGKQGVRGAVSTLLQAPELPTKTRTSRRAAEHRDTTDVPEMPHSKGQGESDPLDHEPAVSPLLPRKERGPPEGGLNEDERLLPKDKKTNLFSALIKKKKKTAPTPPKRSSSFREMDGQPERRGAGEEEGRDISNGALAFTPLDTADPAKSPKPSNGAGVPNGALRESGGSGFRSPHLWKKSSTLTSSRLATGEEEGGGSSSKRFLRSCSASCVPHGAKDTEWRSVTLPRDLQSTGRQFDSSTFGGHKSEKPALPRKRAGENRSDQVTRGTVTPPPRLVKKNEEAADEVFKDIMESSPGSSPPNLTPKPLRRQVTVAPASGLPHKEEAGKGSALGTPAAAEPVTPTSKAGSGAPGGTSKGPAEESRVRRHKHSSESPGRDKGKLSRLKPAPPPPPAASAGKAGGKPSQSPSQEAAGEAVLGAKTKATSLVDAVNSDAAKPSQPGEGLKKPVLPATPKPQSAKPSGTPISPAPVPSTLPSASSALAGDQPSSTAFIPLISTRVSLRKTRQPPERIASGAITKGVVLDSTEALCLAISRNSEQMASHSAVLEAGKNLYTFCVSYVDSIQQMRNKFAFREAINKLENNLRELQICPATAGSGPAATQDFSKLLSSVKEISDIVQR

[8] = target: SRSF protein kinase 2 (Homo sapiens) (UniProt P78362); settings: Compound concentration 100.0 nM
[9] = target: Interferon-induced, double-stranded RNA-activated protein kinase (Homo sapiens) (UniProt P19525); settings: Compound concentration 100.0 nM
[10] = target: Tyrosine-protein kinase ABL1 (Homo sapiens) (UniProt P00519); settings: Compound concentration 100.0 nM
Sequence of Tyrosine-protein kinase ABL1 (Homo sapiens) (P00519 whole entry): as the sequence (P00519 whole entry F317I) above, with I317F counted along it

[11] = target: Wee1-like protein kinase 2 (Homo sapiens) (UniProt P0C1S8); settings: Compound concentration 100.0 nM
[12] = target: cGMP-dependent protein kinase 1 (Homo sapiens) (UniProt Q13976); settings: Compound concentration 100.0 nM
[13] = target: Calcium/calmodulin-dependent protein kinase type II subunit delta (Homo sapiens) (UniProt Q13557); settings: Compound concentration 100.0 nM
[14] = target: 5-hydroxytryptamine receptor 3A (Homo sapiens) (UniProt P46098); settings: Compound concentration 10.0 uM
[15] = target: Interleukin-1 receptor-associated kinase 3 (Homo sapiens) (UniProt Q9Y616); settings: Compound concentration 100.0 nM
[16] = target: T1, Phosphorylase b kinase regulatory subunit alpha, liver isoform (Homo sapiens) (UniProt P46019); settings: Compound concentration 100.0 nM
T1 sequence (whole entry): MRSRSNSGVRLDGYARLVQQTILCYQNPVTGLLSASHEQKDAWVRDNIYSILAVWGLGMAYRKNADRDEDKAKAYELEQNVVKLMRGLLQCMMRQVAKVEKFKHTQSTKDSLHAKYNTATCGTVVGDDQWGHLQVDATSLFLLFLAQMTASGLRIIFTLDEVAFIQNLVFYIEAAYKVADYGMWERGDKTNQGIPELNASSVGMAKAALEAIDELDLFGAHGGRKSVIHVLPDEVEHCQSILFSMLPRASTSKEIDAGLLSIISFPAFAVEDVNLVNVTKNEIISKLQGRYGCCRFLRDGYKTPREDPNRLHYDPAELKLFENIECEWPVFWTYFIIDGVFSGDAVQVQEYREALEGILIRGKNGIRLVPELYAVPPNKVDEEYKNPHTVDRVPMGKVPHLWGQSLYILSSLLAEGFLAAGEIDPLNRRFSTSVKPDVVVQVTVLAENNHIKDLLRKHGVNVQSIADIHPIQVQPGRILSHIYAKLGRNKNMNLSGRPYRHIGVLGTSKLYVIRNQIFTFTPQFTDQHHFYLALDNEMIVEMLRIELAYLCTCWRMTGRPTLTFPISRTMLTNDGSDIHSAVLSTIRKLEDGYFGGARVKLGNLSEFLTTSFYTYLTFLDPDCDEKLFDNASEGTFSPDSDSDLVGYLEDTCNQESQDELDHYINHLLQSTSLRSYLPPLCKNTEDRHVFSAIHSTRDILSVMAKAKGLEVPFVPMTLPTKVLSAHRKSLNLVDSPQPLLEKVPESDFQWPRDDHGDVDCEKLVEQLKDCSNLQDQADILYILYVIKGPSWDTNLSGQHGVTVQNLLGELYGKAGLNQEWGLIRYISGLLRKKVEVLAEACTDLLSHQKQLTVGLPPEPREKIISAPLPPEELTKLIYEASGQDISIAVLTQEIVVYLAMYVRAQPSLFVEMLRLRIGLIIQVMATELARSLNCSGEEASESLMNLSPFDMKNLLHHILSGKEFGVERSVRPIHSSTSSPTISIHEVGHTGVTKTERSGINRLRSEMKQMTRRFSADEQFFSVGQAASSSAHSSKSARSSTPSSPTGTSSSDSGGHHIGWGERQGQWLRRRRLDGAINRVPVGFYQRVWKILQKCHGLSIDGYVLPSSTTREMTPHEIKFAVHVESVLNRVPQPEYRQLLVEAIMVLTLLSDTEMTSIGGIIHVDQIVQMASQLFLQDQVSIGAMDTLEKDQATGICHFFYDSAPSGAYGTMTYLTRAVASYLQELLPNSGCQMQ

[17] = target: Serine/threonine-protein kinase BRSK1 (Homo sapiens) (UniProt Q8TDC3); settings: Compound concentration 100.0 nM
[18] = target: Serine/threonine-protein kinase RIO2 (Homo sapiens) (UniProt Q9BVS4); settings: Compound concentration 100.0 nM
[19] = target: Calcium/calmodulin-dependent protein kinase type II subunit beta (Homo sapiens) (UniProt Q13554); settings: Compound concentration 100.0 nM
[20] = target: Cyclin-dependent kinase 4 (Homo sapiens) (UniProt P11802); settings: Compound concentration 100.0 nM
Sequence of Cyclin-dependent kinase 4 (Homo sapiens) (P11802 whole entry): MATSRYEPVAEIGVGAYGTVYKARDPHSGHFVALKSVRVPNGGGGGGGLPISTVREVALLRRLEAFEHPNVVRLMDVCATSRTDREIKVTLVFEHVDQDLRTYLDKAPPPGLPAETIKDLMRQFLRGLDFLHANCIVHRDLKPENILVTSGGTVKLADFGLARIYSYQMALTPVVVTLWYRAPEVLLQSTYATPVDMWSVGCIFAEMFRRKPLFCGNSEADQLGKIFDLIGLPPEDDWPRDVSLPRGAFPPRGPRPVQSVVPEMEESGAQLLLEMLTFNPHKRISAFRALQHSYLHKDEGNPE

[21] = target: 5-hydroxytryptamine receptor 2B (Homo sapiens) (UniProt P41595); settings: Compound concentration 10.0 uM
[22] = target: T2, Aurora kinase A (Homo sapiens) (UniProt O14965); settings: Compound concentration 100.0 nM
T2 sequence (whole entry): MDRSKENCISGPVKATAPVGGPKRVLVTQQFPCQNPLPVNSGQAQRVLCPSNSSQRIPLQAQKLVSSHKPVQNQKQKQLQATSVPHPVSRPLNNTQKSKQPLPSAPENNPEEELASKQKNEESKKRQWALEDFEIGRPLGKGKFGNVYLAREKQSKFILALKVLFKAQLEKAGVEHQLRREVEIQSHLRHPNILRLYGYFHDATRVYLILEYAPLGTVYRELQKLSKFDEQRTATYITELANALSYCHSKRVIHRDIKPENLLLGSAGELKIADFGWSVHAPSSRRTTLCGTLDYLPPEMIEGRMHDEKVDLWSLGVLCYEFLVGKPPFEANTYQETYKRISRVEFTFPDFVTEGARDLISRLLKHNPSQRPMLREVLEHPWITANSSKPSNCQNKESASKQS

[23] = target: NT-3 growth factor receptor (Homo sapiens) (UniProt Q16288); settings: Compound concentration 100.0 nM
Sequence of NT-3 growth factor receptor (Homo sapiens) (Q16288 32-839 limits assumed): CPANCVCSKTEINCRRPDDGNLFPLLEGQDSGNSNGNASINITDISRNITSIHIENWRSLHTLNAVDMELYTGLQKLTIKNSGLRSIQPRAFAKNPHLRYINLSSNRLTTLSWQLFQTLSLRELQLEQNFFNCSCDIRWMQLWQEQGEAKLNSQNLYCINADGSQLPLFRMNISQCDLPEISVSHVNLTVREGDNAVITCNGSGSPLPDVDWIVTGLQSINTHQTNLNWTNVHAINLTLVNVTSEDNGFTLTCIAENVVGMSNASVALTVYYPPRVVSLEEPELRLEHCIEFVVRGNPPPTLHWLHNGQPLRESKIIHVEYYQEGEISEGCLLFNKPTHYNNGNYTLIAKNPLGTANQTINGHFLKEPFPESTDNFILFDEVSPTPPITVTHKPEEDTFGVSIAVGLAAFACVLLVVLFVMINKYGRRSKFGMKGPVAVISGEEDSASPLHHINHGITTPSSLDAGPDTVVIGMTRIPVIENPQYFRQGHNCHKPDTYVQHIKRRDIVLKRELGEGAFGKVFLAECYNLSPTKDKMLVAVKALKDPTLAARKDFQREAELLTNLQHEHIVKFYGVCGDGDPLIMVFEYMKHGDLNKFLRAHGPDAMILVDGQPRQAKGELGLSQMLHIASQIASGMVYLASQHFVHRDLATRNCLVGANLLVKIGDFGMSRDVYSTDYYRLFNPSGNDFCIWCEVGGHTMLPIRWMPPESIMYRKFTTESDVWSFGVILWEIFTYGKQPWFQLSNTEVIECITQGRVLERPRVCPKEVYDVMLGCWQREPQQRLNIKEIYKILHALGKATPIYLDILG

Cn1nc(C(=O)NCc2ccc(C(=O)O)cc2)cc1-c1ccc2[nH]ccc2c1 [BI 4395]
inactive: residual activity [1] 81% | residual activity [2] 71% | residual activity [3] 93% | residual activity [4] 100% | residual activity [5] 82% | inhibition [6] 6% | residual activity [7] 100% | residual activity [8] 85% | residual activity [9] 84% | residual activity [10] 62% | residual activity [11] 91% | residual activity [12] 100% | residual activity [13] 83% | inhibition [14] 23.5% | residual activity [15] 83% | residual activity [16] 86% | residual activity [17] 86% | residual activity [18] 100% | residual activity [19] 91% | residual activity [20] 84% | inhibition [21] -2.75% | residual activity [22] 100% | residual activity [23] 89%

CCOC(=O)c1cc2cc(-c3cc(C(=O)NCc4ccc(C(=O)O)cc4)nn3C)ccc2[nH]1 [BI 4394]
inactive: residual activity [1] 100% | residual activity [2] 100% | residual activity [3] 78% | residual activity [4] 86% | residual activity [5] 83% | inhibition [6] 16.4% | residual activity [7] 84% | residual activity [8] 100% | residual activity [9] 100% | residual activity [10] 94% | residual activity [11] 100% | residual activity [12] 91% | residual activity [13] 91% | inhibition [14] 34.8% | residual activity [15] 100% | residual activity [16] 100% | residual activity [17] 100% | residual activity [18] 100% | residual activity [19] 96% | residual activity [20] 82% | inhibition [21] 8.13% | residual activity [22] 90% | residual activity [23] 94%
